Experimental data: patent US20210267203A1, “PESTICIDALLY ACTIVE AZOLE-AMIDE COMPOUNDS” (SYNGENTA PARTICIPATIONS AG, priority 2018, published 2021)

Key:
Format in all cases: in vivo
[1] = tested on: Myzus persicae (Green Peach Aphid); assay: Example B8: Myzus persicae (green peach aphid), intrinsic activity; conditions: 120 h, test rate 12 ppm, sucrose solution, 24-well, 5 days after infestation
Description: Example B8: Myzus persicae (Green Peach Aphid), Intrinsic Activity
Test compounds prepared from 10,000 ppm DMSO stock solutions were applied by pipette into 24-well microtiter plates and mixed with sucrose solution. The plates were closed with a stretched Parafilm. A plastic stencil with 24 holes was placed onto the plate and infested pea seedlings were placed directly on the Parafilm. The infested plate was closed with a gel blotting paper and another plastic stencil and then turned upside down. The samples were assessed for mortality 5 days after infestation.

[2] = tested on: Myzus persicae (Green Peach Aphid); assay: Example B13: activity against Myzus persicae (green peach aphid), 96-well sucrose solution; conditions: 120 h, application rate 50 ppm, 5 days after infestation
Description: Example B13: Activity Against Myzus persicae (Green Peach Aphid)
Test compounds prepared from 10,000 ppm DMSO stock solutions were applied by a liquid handling robot into 96-well microtiter plates and mixed with a sucrose solution. Parafilm was stretched over the 96-well microtiter plate and a plastic stencil with 96 holes was placed onto the plate. Aphids were sieved into the wells directly onto the Parafilm. The infested plates were closed with a gel blotting card and a second plastic stencil and then turned upside down. The samples were assessed for mortality 5 days after infestation.

[3] = tested on: Plutella xylostella (Diamondback Moth); assay: Example B14: activity against Plutella xylostella (diamondback moth), 96-well artificial diet; conditions: 216 h, application rate 500 ppm, 9 days after infestation
Method: Example B14: Activity Against Plutella xylostella (Diamondback Moth)
96-well microtiter plates containing artificial diet were treated with aqueous test solutions, prepared from 10,000 ppm DMSO stock solutions, by a liquid handling robot. After drying, eggs (30 per well) were infested onto a netted lid which was suspended above the diet. The eggs hatch and L1 larvae move down to the diet. The samples were assessed for mortality 9 days after infestation.
The following compounds gave an effect of at least 80% average mortality at an application rate of 500 ppm: […]

[4] = tested on: Plutella xylostella (Diamond Back Moth); assay: Example B5: Plutella xylostella (diamond back moth), artificial diet, 24-well, eggs; conditions: 192 h, application rate 200 ppm, 8 days after infestation, read-out: effect in at least one of the two categories (mortality or growth inhibition)
Method: Example B5: Plutella xylostella (Diamond Back Moth)
24-well microtiter plates with artificial diet were treated with aqueous test solutions prepared from 10,000 ppm DMSO stock solutions by pipetting. After drying, Plutella eggs were pipetted through a plastic stencil onto a gel blotting paper and the plate was closed with it. The samples were assessed for mortality and growth inhibition in comparison to untreated samples 8 days after infestation. The following compounds gave an effect of at least 80% in at least one of the two categories (mortality or growth inhibition) at an application rate of 200 ppm: […]

[5] = tested on: Chilo suppressalis (Striped Rice Stemborer); assay: Example B4: Chilo suppressalis (striped rice stemborer), artificial diet, L2 larvae; conditions: 144 h, application rate 200 ppm, 6 days after infestation
Method: Example B4: Chilo suppressalis (Striped Rice Stemborer)
24-well microtiter plates with artificial diet were treated with aqueous test solutions prepared from 10,000 ppm DMSO stock solutions by pipetting. After drying, the plates were infested with L2 larvae (6-8 per well). The samples were assessed for mortality, anti-feeding effect, and growth inhibition in comparison to untreated samples 6 days after infestation. Control of Chilo suppressalis by a test sample is given when at least one of the categories (i.e. mortality, anti-feedant effect, and growth inhibition) is higher than the untreated sample.

[6] = tested on: Diabrotica Balteata (Corn Root Worm); assay: Example B1: Diabrotica balteata (corn root worm), maize sprouts sprayed, L2 larvae; conditions: 96 h, application rate 200 ppm, 4 days after infestation, read-out: effect in at least one of the two categories (mortality or growth inhibition)
Method: Example B1: Diabrotica Balteata (Corn Root Worm)
Maize sprouts placed onto an agar layer in 24-well microtiter plates were treated with aqueous test solutions prepared from 10,000 ppm DMSO stock solutions by spraying. After drying, the plates were infested with L2 larvae (6 to 10 per well). The samples were assessed for mortality and growth inhibition in comparison to untreated samples 4 days after infestation.
The following compounds gave an effect of at least 80% in at least one of the two categories (mortality or growth inhibition) at an application rate of 200 ppm: […]

[7] = tested on: Spodoptera littoralis (Egyptian Cotton Leaf Worm); assay: Example B9: Spodoptera littoralis (Egyptian cotton leaf worm), cotton leaf discs sprayed, L1 larvae; conditions: foliar, 72 h, application rate 200 ppm, 3 days after infestation
Method: Example B9: Spodoptera littoralis (Egyptian Cotton Leaf Worm)
Cotton leaf discs were placed onto agar in 24-well microtiter plates and sprayed with aqueous test solutions prepared from 10,000 ppm DMSO stock solutions. After drying the leaf discs were infested with five L1 larvae. The samples were assessed for mortality, anti-feeding effect, and growth inhibition in comparison to untreated samples 3 days after infestation. Control of Spodoptera littoralis by a test sample is given when at least one of the three categories (i.e. mortality, anti-feedant effect, and growth inhibition) is higher than the untreated sample.

CC(c1ncnn1-c1ncccn1)N(CC1CC1)C(=O)c1cccc(C2(C#N)CC2)c1 (stereo not drawn) [P21, 3-(1-cyanocyclopropyl)-N-(cyclopropylmethyl)-N-[1-(2-pyrimidin-2-yl-1,2,4-triazol-3-yl)ethyl]benzamide]
≥ 80%: mortality at 12 ppm [1] | mortality at 50 ppm [2] | mortality at 500 ppm [3]

CC(c1ncnn1-c1ncccn1)N(CC1CC1)C(=O)c1cccc(C2CC2C(F)(F)F)c1 (stereo not drawn) [P23, N-(cyclopropylmethyl)-N-[1-(2-pyrimidin-2-yl-1,2,4-triazol-3-yl)ethyl]-3-[2-(trifluoromethyl)cyclopropyl]benzamide]
≥ 80%: percent effect (mortality or growth inhibition) at 200 ppm [4] | mortality at 12 ppm [1] | mortality at 50 ppm [2] | mortality at 500 ppm [3]

CC(NC(=O)c1cc(C(F)(F)F)cc(C(F)(F)C2CCC2)c1)c1ncnn1-c1ncccn1 (stereo not drawn) [P66, 3-[cyclobutyl(difluoro)methyl]-N-[1-(2-pyrimidin-2-yl-1,2,4-triazol-3-yl)ethyl]-5-(trifluoromethyl)benzamide]
≥ 80%: percent control (mortality, anti-feedant effect or growth inhibition) at 200 ppm [5]

CC(NC(=O)c1cc(-c2ccc(C(F)(F)F)cc2)cc(C(F)(F)F)c1)c1ncnn1-c1ncccn1 (stereo not drawn) [P67, N-[1-(2-pyrimidin-2-yl-1,2,4-triazol-3-yl)ethyl]-3-(trifluoromethyl)-5-[4-(trifluoromethyl)phenyl]benzamide]
≥ 80%: percent effect (mortality or growth inhibition) at 200 ppm [6] | percent control (mortality, anti-feedant effect or growth inhibition) at 200 ppm [5] | percent effect (mortality or growth inhibition) at 200 ppm [4] | mortality at 50 ppm [2]

CC(NC(=O)c1cc(-c2cccc(C(F)(F)F)c2)cc(C(F)(F)F)c1)c1ncnn1-c1ncccn1 (stereo not drawn) [P68, N-[1-(2-pyrimidin-2-yl-1,2,4-triazol-3-yl)ethyl]-3-(trifluoromethyl)-5-[3-(trifluoromethyl)phenyl]benzamide]
≥ 80%: percent effect (mortality or growth inhibition) at 200 ppm [6] | percent control (mortality, anti-feedant effect or growth inhibition) at 200 ppm [5] | percent effect (mortality or growth inhibition) at 200 ppm [4] | percent control (mortality, anti-feedant effect or growth inhibition) at 200 ppm [7] | mortality at 50 ppm [2]

CC(NC(=O)c1cc(-c2ccccc2C(F)(F)F)cc(C(F)(F)F)c1)c1ncnn1-c1ncccn1 (stereo not drawn) [P69, N-[1-(2-pyrimidin-2-yl-1,2,4-triazol-3-yl)ethyl]-3-(trifluoromethyl)-5-[2-(trifluoromethyl)phenyl]benzamide]
≥ 80%: percent effect (mortality or growth inhibition) at 200 ppm [6] | percent control (mortality, anti-feedant effect or growth inhibition) at 200 ppm [5] | percent effect (mortality or growth inhibition) at 200 ppm [4] | percent control (mortality, anti-feedant effect or growth inhibition) at 200 ppm [7] | mortality at 50 ppm [2]

CC(NC(=O)c1cc(C2CC2)cc(C(F)(F)F)c1)c1ncnn1-c1ccc(Br)cn1 (stereo not drawn) [P74, N-[1-[2-(5-bromo-2-pyridyl)-1,2,4-triazol-3-yl]ethyl]-3-cyclopropyl-5-(trifluoromethyl)benzamide]
≥ 80%: percent effect (mortality or growth inhibition) at 200 ppm [6] | percent control (mortality, anti-feedant effect or growth inhibition) at 200 ppm [5] | percent effect (mortality or growth inhibition) at 200 ppm [4] | percent control (mortality, anti-feedant effect or growth inhibition) at 200 ppm [7]

CC(NC(=O)c1cc(C(F)(F)F)cc(C2(C#N)CC2)c1)c1ncnn1-c1ccccn1 (stereo not drawn) [P76, 3-(1-cyanocyclopropyl)-N-[1-[2-(2-pyridyl)-1,2,4-triazol-3-yl]ethyl]-5-(trifluoromethyl)benzamide]
≥ 80%: percent effect (mortality or growth inhibition) at 200 ppm [6] | percent control (mortality, anti-feedant effect or growth inhibition) at 200 ppm [5] | percent effect (mortality or growth inhibition) at 200 ppm [4] | percent control (mortality, anti-feedant effect or growth inhibition) at 200 ppm [7]
